In PubChem BioAssay AID1963869 (Molecular Pharmacology Branch, DTP, NCI, 2024):
Active and inactive are the calls of the source. How the source made its calls: active means viability on the fitted dose curve at most 10% of control; inactive means the rest.

Tested on: KRAS patient-derived spheroids with HUVEC/MSC, viability
Test: Anticancer human tumor 323965-272-R-J2-PDC patient-derived pancreatic carcinoma cell line growth inhibition [KRAS2]
Conditions: for viability, T/C: stronger effect = lower value
Text: Multicellular complex tumor spheroid response to RAS pathway inhibitors in combination with a targeted agents in patient-derived cell lines with oncogenic KRAS variants from multiple cancer types
A high-throughput screen of multi-cell type tumor spheroids was designed to identify active combinations of targeted small molecules and KRAS pathway inhibitors. Complex spheroids include a stromal component modeled by human endothelial cells (HUVEC) and fibroblasts modeled by human mesenchymal stem cells (MSCs). The concentration ranges selected for each drug and investigational agent were based upon clinically achievable concentrations if the clinical Cmax of the agent was known.
Compounds. The drugs and investigational agents: BI-3406 (NSC825286), BAY-293 (NSC824723), batoprotafib (TNO155; NSC825523), sotorasib (AMG 510; NSC818433), MRTX1257 (NSC819558), elimusertib (BAY 1895344; NSC800525), molibresib (GSK525762; NSC774829), temuterkib (LY3214996; NSC803410), venetoclax (NSC766270), alisertib (NSC759677), olaparib (NSC753686), talazoparib (NSC767125), erdafitinib (NSC781556), ipatasertib (NSC767898), cabozantinib (NSC761068), nintedanib (NSC756659), abemaciclib (NSC768073), docetaxel (NSC628503), trametinib (NSC758246), and sapanisertib (NSC764658) were obtained from the National Cancer Institute (NCI) Developmental Therapeutics Program Chemical Repository. The FDA-approved anticancer drug set is available from the Developmental Therapeutics Program. […] The stock solutions were prepared in dimethyl sulfoxide (DMSO, Sigma-Aldrich, St. Louis, MO, cat. D2650) at 800-fold the tested concentration and stored at -70 degrees C prior to their use. All drugs and investigational agents were tested over a range starting from a high concentration at or near the clinical Cmax and decreasing in half-log increments. If the clinical Cmax for an agent had not been determined, the highest concentration tested was 10 microM.
Cell Culture. All cells were maintained in an incubator at 37 degrees C and 5% CO2 with 95% humidity. The PDC lines were cultured according to standard operating procedures established by the NCI PDMR (https://pdmr.cancer.gov/sops/default.htm). Briefly, all PDCs were thawed and cultured in Matrigel-coated flasks prepared with a working solution of 1X Ham's F-12 nutrient mix, without supplementation (Invitrogen, Waltham, MA, cat. 11765054), 100 U/mL penicillin-streptomycin (Invitrogen, cat. 15140122), and 2.5% Matrigel (Corning Inc., Corning, NY, cat. 354248) for the first three passages. All PDCs were cultured in complete DMEM/F-12 media containing advanced DMEM/F-12 (Invitrogen, cat. 12634028), 4.9% defined fetal bovine serum, heat inactivated (HyClone Laboratories Inc., Logan, UT, cat. SH30070.03HI), 389 ng/mL hydrocortisone (Sigma-Aldrich, cat. H4001), 9.7 ng/mL human EGF recombinant protein (Invitrogen, cat. PHG0313), 23.4 microg/mL adenine (Sigma-Aldrich, cat. A2786), 97.3 U/mL penicillin-streptomycin (Invitrogen, cat. 15140122), 1.9 mM L-glutamine (Invitrogen, cat. 25030081), and 9.7 microM Y-27632 dihydrochloride (Tocris Bioscience, Bristol, United Kingdom, cat. 1254). The PDCs were cultured in complete DMEM/F12 media without 9.7 microM Y-27632 dihydrochloride for at least two passages prior to the screen. The established cell line HOP-62 was cultured in RPMI 1640 medium, HEPES (Invitrogen, cat. 22400105) with 10% defined fetal bovine serum (HyClone Laboratories Inc., cat. SH30070.03) and 2 mM L-glutamine (Invitrogen, cat. 25030081). The pooled donor HUVEC were cultured in endothelial cell growth medium 2 (PromoCell, Heidelberg, Germany, cat. C-22011) and the hMSC were cultured in mesenchymal stem cell growth medium 2 (PromoCell, cat. C-28009). For all experiments, HUVEC and hMSC were used at passages </=5, while the malignant cell lines were used at passages </=15. […]

[1] = curve of first compound, second compound 0.1 µM
[2] = curve of first compound, second compound 0.316 µM
[3] = curve of first compound, second compound 1 µM
[4] = curve of first compound, second compound 3.16 µM
[5] = curve of first compound, second compound 10 µM
[6] = second compound 0.1 µM, first compound 0.0316 µM
[7] = second compound 0.1 µM, first compound 0.1 µM
[8] = second compound 0.1 µM, first compound 0.316 µM
[9] = second compound 0.1 µM, first compound 1 µM
[10] = second compound 0.1 µM, first compound 3.16 µM
[11] = second compound 0.1 µM, first compound 10 µM
[12] = second compound 0.316 µM, first compound 0.0316 µM
[13] = second compound 0.316 µM, first compound 0.1 µM
[14] = second compound 0.316 µM, first compound 0.316 µM
[15] = second compound 0.316 µM, first compound 1 µM
[16] = second compound 0.316 µM, first compound 3.16 µM
[17] = second compound 0.316 µM, first compound 10 µM
[18] = second compound 1 µM, first compound 0.0316 µM
[19] = second compound 1 µM, first compound 0.1 µM
[20] = second compound 1 µM, first compound 0.316 µM
[21] = second compound 1 µM, first compound 1 µM
[22] = second compound 1 µM, first compound 3.16 µM
[23] = second compound 1 µM, first compound 10 µM
[24] = second compound 3.16 µM, first compound 0.0316 µM
[25] = second compound 3.16 µM, first compound 0.1 µM
[26] = second compound 3.16 µM, first compound 0.316 µM
[27] = second compound 3.16 µM, first compound 1 µM
[28] = second compound 3.16 µM, first compound 3.16 µM
[29] = second compound 3.16 µM, first compound 10 µM
[30] = second compound 10 µM, first compound 0.0316 µM
[31] = second compound 10 µM, first compound 0.1 µM
[32] = second compound 10 µM, first compound 0.316 µM
[33] = second compound 10 µM, first compound 1 µM
[34] = second compound 10 µM, first compound 3.16 µM
[35] = second compound 10 µM, first compound 10 µM
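Wherever IC50 is given: spheroids exposed to agents for 7 days.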
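Wherever viability, T/C is given: spheroids exposed to agents for 7 days.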

SMILES	IC50 [1] [nM]	IC50 [2] [nM]	IC50 [3] [nM]	IC50 [4] [nM]	IC50 [5] [nM]	viability, T/C [6] [%]	viability, T/C [7] [%]	viability, T/C [8] [%]	viability, T/C [9] [%]	viability, T/C [10] [%]	viability, T/C [11] [%]	viability, T/C [12] [%]	viability, T/C [13] [%]	viability, T/C [14] [%]	viability, T/C [15] [%]	viability, T/C [16] [%]	viability, T/C [17] [%]	viability, T/C [18] [%]	viability, T/C [19] [%]	viability, T/C [20] [%]	further results
CC1(C)CCC(CN2CCN(c3ccc(C(=O)NS(=O)(=O)c4ccc(NCC5CCOCC5)c([N+](=O)[O-])c4)c(Oc4cnc5[nH]ccc5c4)c3)CC2)=C(c2ccc(Cl)cc2)C1 + CC1OCC2(CCN(c3cnc(Sc4ccnc(N)c4Cl)c(N)n3)CC2)C1N	1380	1070	< 31.6	< 31.6	< 31.6	81.6	74.7	78	65.3	10.1	3.29	56.9	63.4	49.9	53	6.85	2.39	43.9	45.9	40.5	viability, T/C [21]: 34%; viability, T/C [22]: 5.15%; viability, T/C [23]: 1.19%; viability, T/C [24]: 37.3%; viability, T/C [25]: 32.7%; viability, T/C [26]: 26.6%; viability, T/C [27]: 20.2%; viability, T/C [28]: 4.11%; viability, T/C [29]: 1.21%; viability, T/C [30]: 24.6%; viability, T/C [31]: 24.5%; viability, T/C [32]: 25.4%; viability, T/C [33]: 20.9%; viability, T/C [34]: 2.63%; viability, T/C [35]: 0.27%
CC1(C)CCC(CN2CCN(c3ccc(C(=O)NS(=O)(=O)c4ccc(NCC5CCOCC5)c([N+](=O)[O-])c4)c(Oc4cnc5[nH]ccc5c4)c3)CC2)=C(c2ccc(Cl)cc2)C1																					viability, T/C (compound 0.0316 µM): 100% [middle of 5 runs]; viability, T/C (compound 0.1 µM): 94.9% [middle of 5 runs]; viability, T/C (compound 0.316 µM): 98% [middle of 5 runs]; viability, T/C (compound 1 µM): 96.1% [middle of 5 runs]; viability, T/C (compound 3.16 µM): 21% [middle of 5 runs]; viability, T/C (compound 10 µM): 7.62% [middle of 5 runs]; IC50 (curve of compound): 1.99 µM [middle of 5 runs]
O=C(c1cc(Cc2n[nH]c(=O)c3ccccc23)ccc1F)N1CCN(C(=O)C2CC2)CC1 + CC1OCC2(CCN(c3cnc(Sc4ccnc(N)c4Cl)c(N)n3)CC2)C1N	> 10000	> 10000	9440	< 31.6	< 31.6	73.2	73.4	82.2	80.1	82.3	53.7	60.9	67.9	65.8	67.3	61.3	40.1	101	106	102	viability, T/C [21]: 101%; viability, T/C [22]: 88.5%; viability, T/C [23]: 47.8%; viability, T/C [24]: 36.6%; viability, T/C [25]: 40.9%; viability, T/C [26]: 41.4%; viability, T/C [27]: 34.8%; viability, T/C [28]: 36.8%; viability, T/C [29]: 24.9%; viability, T/C [30]: 33.1%; viability, T/C [31]: 33.1%; outcome [32]: inactive; viability, T/C [33]: 28%; viability, T/C [34]: 23.7%; viability, T/C [35]: 19%
